PubChem BioAssay (NCI)
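Five concentrations, 48 hours, 96-well plates. GI50 marks 50% less growth. TGI: concentration producing complete growth inhibition.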

How the values were obtained:
Experiment in all cases: NCI anticancer screen, dose series, 48 h
[1] = test system: UO-31 renal
[2] = test system: NCI-H460 lung
[3] = test system: DU-145 prostate
[4] = test system: NCI-H522 lung
[5] = test system: SNB-75 CNS
[6] = test system: SK-MEL-5 melanoma
[7] = test system: BT-549 breast
[8] = test system: SW-620 colon
[9] = test system: XF 498 CNS
[10] = test system: M19-MEL melanoma

Row | Structure (SMILES) | GI50 [1] | TGI [1] | GI50 [2] | TGI [2] | GI50 [3] | TGI [3] | GI50 [4] | TGI [4] | GI50 [5] | TGI [5] | GI50 [6] | TGI [6] | GI50 [7] | TGI [7] | GI50 [8] | TGI [8] | TGI [9] | TGI [10]
1 | O=C(NNc1ccccc1)C(=O)NNc1ccccc1 | > 100 µM | > 100 µM | 3.47 µM | > 100 µM | 20.8 µM | > 100 µM | > 100 µM | > 100 µM | 11.6 µM | > 100 µM | 10.8 µM | > 100 µM | 42.4 µM | > 100 µM | 7.3 µM | > 100 µM |  | 
2 | COC(=O)c1ccc2c(c1)/C(=C\c1cc(Br)c(O)c(Br)c1)C(=O)N2 | 6.84 µM | > 25 µM | 7.57 µM | > 25 µM | 7.15 µM | > 25 µM | 4.73 µM | 19.3 µM | 5.4 µM | > 25 µM | 4.48 µM | > 16.5 µM | 10.6 µM | > 25 µM | 8.4 µM | > 25 µM |  | 
3 | CCOC(=O)c1ccc(N=Nc2cc(C(=O)OCC)ccc2O)cc1 |  | > 100 µM |  | > 100 µM |  |  |  | > 100 µM |  |  |  | > 100 µM |  |  |  | > 100 µM | 22 µM | > 100 µM
4 | CSc1ccccc1C#C/C=C\C#Cc1ccccc1N | 17 µM | > 100 µM | 4.69 µM | 26 µM | 15.4 µM | 45.6 µM | 0.527 µM | 32.4 µM | 36.3 µM | 81 µM | 3.71 µM | 16.4 µM | 3.27 µM | 9.17 µM | 3.72 µM | 14.8 µM |  | 
5 | CCc1ccc(/C=C/c2ccc(O)c3ncccc23)[n+](C)c1 | 7.4 µM | > 100 µM | 0.507 µM | > 100 µM | 4.96 µM | > 100 µM | 2.3 µM | > 100 µM | > 100 µM | > 100 µM | 3.55 µM | > 100 µM | 15.1 µM | > 100 µM | 4.47 µM | > 100 µM |  | 
6 | CC(C)=CCc1cc2c(cc1O)OC[C@H]1c3cc4c(cc3O[C@@H]21)OCO4 |  | > 100 µM |  | 44.5 µM |  | > 100 µM |  | > 100 µM |  | > 100 µM |  | 39.3 µM |  | 95.3 µM |  | > 100 µM |  | 
7 | CN1CC[C@@H](c2c(O)cc(O)c3c(=O)cc(-c4ccc(C(F)(F)F)cc4Cl)oc23)[C@@H]1CO | 11 µM | 37.8 µM | 15.8 µM | 31.4 µM | 16.5 µM | 37.7 µM | 17.4 µM | 37.3 µM | 6.89 µM | 22 µM | 15.4 µM | 30.7 µM | 12.2 µM | 25.9 µM | 14.7 µM | 31.5 µM |  | 
8 | C=CCC1(CN(C)C)CC/C(=C\c2ccc(Cl)cc2)C1=O (stereo not drawn) |  | > 100 µM |  | 45.6 µM |  |  |  | 41.9 µM |  | > 90.3 µM |  | > 79.1 µM |  |  |  | > 76.2 µM | > 100 µM | > 92.7 µM
